# Assay results reported in the supplement of paper PMC4862054.
# Tests used:
# Conditions in all cases: incubation time: 72 h
# HCC1143 [1] = assay: normalised response (% of control), CellTiter-Glo; higher = more viable cells (100 = DMSO, 0 = benzethonium chloride kill control)
# Description: (§1)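 DSRT, 72 h incubation, CellTox Green / CellTiter-Glo readout. Signal is normalised to DMSO and benzethonium chloride controls. Value is the normalised response at dose 3.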
# CAL-148 [2] = assay: as above
# Description: as §1
# DU-4475 [3] = assay: as above
# Description: as §1
# CAL-85-1 [4] = assay: as above
# Description: as §1
# HCC1599 [5] = assay: as above
# Description: as §1
# MDA-MB-231 [6] = assay: as above
# Description: as §1
# MCF-10A [7] = assay: as above
# Description: as §1
# BT-474 [8] = assay: as above
# Description: as §1
# MDA-MB-468 [9] = assay: as above
# Description: as §1
# MDA-MB-453 [10] = assay: as above
# Description: as §1
# MDA-MB-436 [11] = assay: as above
# Description: as §1
# CAL-120 [12] = assay: as above
# Description: as §1
# HDQ-P1 [13] = assay: as above
# Description: as §1
# Hs578T [14] = assay: as above
# Description: as §1
# HCC1937 [15] = assay: as above
# Description: as §1
# MFM-223 [16] = assay: as above
# Description: as §1
# BT-549 [17] = assay: as above
# Description: as §1
# CAL-51 [18] = assay: as above
# Description: as §1
# SK-BR-3 = assay: as above
# Description: as §1
# HCC1143 [19] = assay: normalised response (% of control), CellTox Green; higher = less cell death (100 = DMSO, 0 = benzethonium chloride kill control)
# In short: (§2)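 Plates were normalised with 0.1 % DMSO as 100 and a positive kill control as 0. Breast cancer cell lines in 20 µl suspension had been seeded into 384-well plates with compound at 5 concentrations in 10-fold steps over a compound-specific 10,000-fold range, incubated 72 h, and read for CellTox Green fluorescence (485/520 nm) followed by CellTiter-Glo luminescence. Each value is the normalised signal at a single concentration.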
# CAL-148 [20] = assay: as above
# In short: as §2
# DU-4475 [21] = assay: as above
# In short: as §2
# CAL-85-1 [22] = assay: as above
# In short: as §2
# HCC1599 [23] = assay: as above
# In short: as §2
# MDA-MB-231 [24] = assay: as above
# In short: as §2
# MCF-10A [25] = assay: as above
# In short: as §2
# BT-474 [26] = assay: as above
# In short: as §2
# MDA-MB-468 [27] = assay: as above
# In short: as §2
# MDA-MB-453 [28] = assay: as above
# In short: as §2
# MDA-MB-436 [29] = assay: as above
# In short: as §2
# CAL-120 [30] = assay: as above
# In short: as §2
# HDQ-P1 [31] = assay: as above
# In short: as §2
# Hs578T [32] = assay: as above
# In short: as §2
# HCC1937 [33] = assay: as above
# In short: as §2
# MFM-223 [34] = assay: as above
# In short: as §2
# BT-549 [35] = assay: as above
# In short: as §2
# CAL-51 [36] = assay: as above
# In short: as §2
Compound,normalised response (HCC1143 [1]) [%],normalised response (CAL-148 [2]) [%],normalised response (DU-4475 [3]) [%],normalised response (CAL-85-1 [4]) [%],normalised response (HCC1599 [5]) [%],normalised response (MDA-MB-231 [6]) [%],normalised response (MCF-10A [7]) [%],normalised response (BT-474 [8]) [%],normalised response (MDA-MB-468 [9]) [%],normalised response (MDA-MB-453 [10]) [%],normalised response (MDA-MB-436 [11]) [%],normalised response (CAL-120 [12]) [%],normalised response (HDQ-P1 [13]) [%],normalised response (Hs578T [14]) [%],normalised response (HCC1937 [15]) [%],normalised response (MFM-223 [16]) [%],normalised response (BT-549 [17]) [%],normalised response (CAL-51 [18]) [%],normalised response (SK-BR-3) [%],normalised response (HCC1143 [19]) [%],normalised response (CAL-148 [20]) [%],normalised response (DU-4475 [21]) [%],normalised response (CAL-85-1 [22]) [%],normalised response (HCC1599 [23]) [%],normalised response (MDA-MB-231 [24]) [%],normalised response (MCF-10A [25]) [%],normalised response (BT-474 [26]) [%],normalised response (MDA-MB-468 [27]) [%],normalised response (MDA-MB-453 [28]) [%],normalised response (MDA-MB-436 [29]) [%],normalised response (CAL-120 [30]) [%],normalised response (HDQ-P1 [31]) [%],normalised response (Hs578T [32]) [%],normalised response (HCC1937 [33]) [%],normalised response (MFM-223 [34]) [%],normalised response (BT-549 [35]) [%],normalised response (CAL-51 [36]) [%]
C[C@@H](Oc1cc(-c2cnn(C3CCNCC3)c2)cnc1N)c1c(Cl)ccc(F)c1Cl [Crizotinib] (10 nM),102,100,103,93.5,97.4,104,101,102,92.7,107,99,100,93.6,99.9,98.2,99.3,96.7,57.6,97.3,89.3,102,103,89.3,109,88.4,80.3,100,230,105,65.4,107,96.1,105,90.5,105,98.6,84.9
C#Cc1cccc(Nc2ncnc3cc(OCCOC)c(OCCOC)cc23)c1 [Erlotinib] (100 nM),102,115,105,100,102,118,65,98.3,90.8,109,102,98.1,74,100,99,103,105,105,112,114,103,102,86.2,104,,85.9,101,118,106,98.9,95.6,108,75.5,107,103,93,111
C[C@]12CC[C@@H]3c4ccc(O)cc4C[C@@H](CCCCCCCCC[S+]([O-])CCCC(F)(F)C(F)(F)F)[C@H]3[C@@H]1CC[C@@H]2O (some centres undefined) [Fulvestrant] (10 nM),105,105,101,97.9,108,106,109,104,108,103,103,103,96.1,102,92.8,104,106,111,105,107,104,103,102,105,115,104,99.8,86.1,79.4,107,101,97.2,100,121,,104,109
CCC(C)(C)C(=O)O[C@H]1C[C@@H](C)C=C2C=C[C@H](C)[C@H](CC[C@@H]3C[C@@H](O)CC(=O)O3)[C@H]21 [Simvastatin] (100 nM),105,107,98.4,98.9,89.2,98.6,111,97.5,93.7,95.5,99.7,100,102,102,99,105,94.5,104,105,91,99.7,105,,95.1,115,107,97.3,94.2,77.8,,,78.8,75.5,68.8,102,59.3,113
O=C(CCCCCCC(=O)Nc1ccc([C@H]2O[C@@H](CSc3nc(-c4ccccc4)c(-c4ccccc4)o3)C[C@@H](c3ccc(CO)cc3)O2)cc1)NO [Tubacin] (100 nM),96,106,102,97.2,85.2,97,106,94.8,95.3,96.1,96.8,112,88.2,94.6,92.8,97,96.7,89.2,97.1,99,98.1,100,99.6,102,110,104,102,82.4,99.4,,105,87.9,98.1,83.3,103,102,101
